# Reference: US20080286350A1, “Formulation of Multivalent Antibody Constructs and Use of Same for Cancer Therapy” (BC CANCER AGENCY, priority 2004, published 2008)
# Legend:
# Format in all cases: cell-based
# [1] = test system: phosphorylated p65NF-κB, Bcl-xL, Bcl-2, Bax, p-Akt; test: Western blot analyses of cell survival molecules, Z-138; settings: 15 μg/mL, 3 days
# Protocol: (§1) FIGS. 6(a)-6(b) are bar graphs and Western blot analyses showing modulation of cancer cell survival pathways by multivalent liposomal Ab constructs. […] The concentration of trastuzumab was 200 μg/mL. (b) Representative cell cycle analysis, DAPI staining and Western blot analyses of Z-138 cells after exposure to free or liposomal rituximab for 3 days. The concentration of rituximab was 15 μg/mL. […] For DAPI staining, yellow arrows indicate apoptotic morphology of DNA condensation or fragmentation associated with Z-138 cells exposed to various treatments. The scale bar is equivalent to 50 μm, and all images are shown at the same magnification.
# The following antibodies were used in this study: anti-p-HER2-Tyr-1248/Tyr-1173; anti-HER2; anti-p-Akt-Ser-473 and anti-Akt (all were rabbit polyclonal, New England Biolabs) and anti-human β-actin (mouse monoclonal, Sigma). The secondary antibody was horseradish peroxidase-conjugated anti-mouse or anti-rabbit IgG (Promega, Madison, Wis.). Proteins were detected by enhanced chemiluminescence (Amersham Pharmacia Biotech, Buckinghamshire, England), and visualized after exposure to Kodak autoradiography film. Equivalent amounts of protein (30 μg/lane determined by Bradford assay) were resolved by 12% SDS-polyacrylamide pre-made gels (Bio-Rad).
# [2] = test system: Z-138 cells; test: Cell cycle analysis and DAPI staining, Z-138; settings: 15 μg/mL, 3 days
# Protocol: as §1
# Cells were harvested after treatment and fixed in cold 70% ethanol adjusted to 1×10^6 cells/mL and 2×10^6 cells/mL for cell cycle analyses and DAPI staining, respectively. In the case of cell cycle analyses, cells were stained in propidium iodide (PI) buffer [50 μg/mL PI, 1 mg/mL RNase A (Sigma), and 0.1% Triton X-100 in PBS] at 37° C. for 15 min as previously described ^28. Cells were then chilled on ice for 1 h and analyzed on a FACSCalibur flow cytometer (Becton Dickinson, San Jose, Calif.) with 20,000 events collected for each sample. In the case of DAPI staining, cells were incubated in DAPI staining solution (0.1 μg/mL DAPI, 1 mg/mL RNase A and 0.1% Triton X-100 in PBS) for 15 min, followed by chilling on ice for 30 min. Cells were cytospun onto a glass slide, and viewed with a Leica DMLB fluorescence microscope. Images were captured with a Retiga 1300i digital camera and analyzed by the computer software OpenLab 3.5.1 (Improvision).
# [3] = test system: Ramos (Burkitt's lymphoma) cell line; test: Cell viability assay, fraction of cells affected (fa), Ramos
# Protocol: (§2) FIGS. 5(a)-(d) are a series of bar graphs summarizing results for in vitro treatment of cancer cell lines with free bivalent or liposomal multivalent Ab constructs. […] Fraction of cells affected (fa) was calculated as follows: fa=1−fu, where fu was the fraction of remaining viable cells calculated as the ratio of the absorbance readings from the MTT assay for treated and untreated groups. Data represent mean ±S.E.M. from 3 independent experiments. * and ^# denote P<0.05 as compared to the free Ab treatment (ANOVA and Scheffe test for post-hoc comparisons).
# (§3) Cells (3,500 cells/well for LCC6^HER2 and MCF7^HER2, and 20-50,000 cells/well for Ramos and 20,000 cells/well for Z-138) were seeded in 96-well plates. In the case of LCC6^HER2 and MCF7^HER2 cells, treatment was added after an overnight incubation to allow cell adherence to plates. In the case of Ramos and Z-138 cells, treatment was added on the same day after seeding. Cell viability was determined using 3-(4,5-dimethylthiazol-2-yl)-2,5-diphenyltetrazolium bromide (MTT) as previously described ^28 or Alamar Blue added in 10 μL/well with an 18-h incubation before reading fluorescence in a Fluorstar (v 1.2) plate reader (BMG Labtechnologies, Offenburg, Germany).
# (§4) For rituximab, testing was conducted in a Burkitt's lymphoma cell line, Ramos (FIG. 5c), and a mantle cell lymphoma cell line, Z-138 (FIG. 5d).
# [4] = test system: Ramos cells; test: MTT cell viability assay, Ramos cells, 48 hours (Example 1)
# [5] = test system: Z-138 (mantle cell lymphoma) cell line; test: Cell viability assay, fraction of cells affected (fa), Z-138
# Protocol: as §2, §3, §4
# [6] = test system: caspase 3/7; test: Caspase 3/7 activity, Z-138; settings: Z-138 cells, data not shown
# [7] = 3 days, 10% serum, range of Ab concentrations tested
Substance,expression levels of phosphorylated p65NF-κB and downstream Bcl-xL [1],"apoptosis: percentage of cells in sub-G1/G0 phase, morphology (DAPI) [2]","potency / cytotoxic activity on cell viability (MTT assay), in words [4]",other results
"cross-linked rituximab: Free rituximab cross-linked by an anti-human IgG F(ab)′ (goat F(ab′)2 anti-human IgG, 50 μg/mL), included as a control",reduced,increases,,"expression level of p-Akt [1]: capable of reducing; activity (fa) compared to liposomal rituximab, in words ([3]; Ab concentrations above 10 μg/mL, P<0.05): more effective than liposomal rituximab"
Lipo-RTX 59: Rituximab bound to liposomes at antibody-to-lipid ratio of 59 μg antibody/μmol lipid,,,superior potency to free Rituximab,
"liposomal rituximab: rituximab conjugated to DSPC/CHOL/DSPE-PEG2000/DSPE-PEG2000-MAL liposomes, Ab-to-lipid ratio 50-70 μg/μmol",reduced,increases,,"activity (fa) compared to free rituximab, in words [5, 7]: significantly more effective than the free, bivalent form; activity (fa) compared to cross-linked rituximab, in words ([5]; P>0.05): not significantly different from that of cross-linked rituximab; increase in caspase 3/7 activity [6]: not; activity (fa) compared to free rituximab, in words [3, 7]: significantly more effective than the free, bivalent form"
Lipo-RTX 48: Rituximab bound to liposomes at antibody-to-lipid ratio of 48 μg antibody/μmol lipid,,,superior potency to free Rituximab,
free rituximab: a therapeutic antibody targeting CD20; anti CD20 monoclonal antibody,not different from untreated cells,not different from untreated cells,minimal or no cytotoxic activity,
